Structures can show the parent of a compound that is named as a salt.
The compounds below were run on Acinetobacter baumannii ATCC17961 (assay: Antimicrobial susceptibility testing: 90% growth inhibitory concentration (IC90) determination). Settings: Acinetobacter baumannii, ATCC17961, 16 h, 90% growth inhibitory concentration, Acinetobacter baumannii ATCC17961, Iso-Sensitest broth, OD 600 nm over 16 h; read-out: ATCC 17961 IC90.
Format: cell-based
Procedure: Assay Procedures Antimicrobial Susceptibility Testing: 90% Growth Inhibitory Concentration (IC90) Determination
The in vitro antimicrobial activity of the compounds was determined according to the following procedure:
The assay used a 10-points Iso-Sensitest broth medium to measure quantitatively the in vitro activity of the compounds against Acinetobacter baumannii ATCC17961.
Stock compounds in DMSO were serially twofold diluted (e.g. range from 50 to 0.097 μM final concentration) in 384 wells microtiter plates and inoculated with 49 μl the bacterial suspension in Iso-Sensitest medium to have a final cell concentration of ˜5×10^(5) CFU/ml in a final volume/well of 50 ul/well. Microtiter plates were incubated at 35±2° C.
Bacterial cell growth was determined with the measurement of optical density at λ=600 nm each 20 minutes over a time course of 16h. Growth inhibition was calculated during the logarithmic growth of the bacterial cells with determination of the concentration inhibiting 50% (IC50) and 90% (IC90) of the growth.
Table 1 provides the 90% growth inhibitory concentrations (IC90) in micromoles per liter of the compounds of present invention obtained against the strain Acinetobacter baumannii ATCC17961.

IC90 [µM]	SMILES
0.15	COCCn1nc(C)c(-c2ccc(-c3cnc(C(=O)Nc4ccc(C(=O)NC5[C@H]6CN(C(=O)N[C@@H]7C[N+](C)(C)C[C@H]7O)C[C@@H]56)c(Cl)c4)n3C)c(F)c2F)c1C (mixture of isomers) [Example F60, rac-(1S,5R)-6-[[2-chloro-4-[[5-[2,3-difluoro-4-[1-(2-methoxyethyl)-3,5-dimethyl-pyrazol-4-yl]phenyl]-1-methyl-imidazole-2-carbonyl]amino]benzoyl]amino]-N-[(3R,4R)-4-hydroxy-1,1-dimethyl-pyrrolidin-1-ium-3-yl]-3-azabicyclo[3.1.0]hexane-3-carboxamide; formate]
0.39	COCCn1nc(C)c(-c2ccc(-c3cnc(C(=O)Nc4ccc(C(=O)N5CCN(C(=O)[C@@H]6C[C@@H](O)C[N+]6(C)C)CC5)c(Cl)c4)n3C)c(F)c2F)c1C (racemic) [Example D3, N-[3-chloro-4-[4-[(2S,4R)-4-hydroxy-1,1-dimethyl-pyrrolidin-1-ium-2-carbonyl]piperazine-1-carbonyl]phenyl]-5-[2,3-difluoro-4-[1-(2-methoxyethyl)-3,5-dimethyl-pyrazol-4-yl]phenyl]-1-methyl-imidazole-2-carboxamide; formate]
0.23	COCCn1nc(C)c(-c2ccc(-c3cnc(C(=O)Nc4ccc(C(=O)N5CCN(C(=O)C6CC[N+](C)(C)CC6)CC5)c(Cl)c4)n3C)c(F)c2F)c1C [Example A2, N-[3-chloro-4-[4-(1,1-dimethylpiperidin-1-ium-4-carbonyl)piperazine-1-carbonyl]phenyl]-5-[2,3-difluoro-4-[1-(2-methoxyethyl)-3,5-dimethyl-pyrazol-4-yl]phenyl]-1-methyl-imidazole-2-carboxamide; formate]
0.23	COCCn1nc(C)c(-c2ccc(-c3cnc(C(=O)Nc4ccc(C(=O)N5CCN(C(=O)C6CC[N+](C)(C)CC6)CC5)c(Cl)c4)n3C)cc2)c1C [Example A3, N-[3-chloro-4-[4-(1,1-dimethylpiperidin-1-ium-4-carbonyl)piperazine-1-carbonyl]phenyl]-5-[4-[1-(2-methoxyethyl)-3,5-dimethyl-pyrazol-4-yl]phenyl]-1-methyl-imidazole-2-carboxamide; formate]
0.11	COCCn1ncc(-c2ccc(-c3cnc(C(=O)Nc4ccc(C(=O)N5CCN(C(=O)C6CC[N+](C)(C)CC6)CC5)c(Cl)c4)n3C)c(F)c2F)c1C [Example A4, N-[3-chloro-4-[4-(1,1-dimethylpiperidin-1-ium-4-carbonyl)piperazine-1-carbonyl]phenyl]-5-[2,3-difluoro-4-[1-(2-methoxyethyl)-5-methyl-pyrazol-4-yl]phenyl]-1-methyl-imidazole-2-carboxamide; formate]
0.055	COCCn1ncc(-c2ccc(-c3cnc(C(=O)Nc4ccc(C(=O)N5CCN(C(=O)C[C@@H]6CC[N+](C)(C)C6)CC5)c(Cl)c4)n3C)c(F)c2F)c1C [Example A5, N-[3-chloro-4-[4-[2-[(3S)-1,1-dimethylpyrrolidin-1-ium-3-yl]acetyl]piperazine-1-carbonyl]phenyl]-5-[2,3-difluoro-4-[1-(2-methoxyethyl)-5-methyl-pyrazol-4-yl]phenyl]-1-methyl-imidazole-2-carboxamide; formate]
0.098	COCCn1ncc(-c2ccc(-c3cnc(C(=O)Nc4ccc(C(=O)N5CCC(C(=O)N6CC[N+](C)(C)CC6)CC5)c(Cl)c4)n3C)c(F)c2F)c1C [Example A10, N-[3-chloro-4-[4-(4,4-dimethylpiperazin-4-ium-1-carbonyl)piperidine-1-carbonyl]phenyl]-5-[2,3-difluoro-4-[1-(2-methoxyethyl)-5-methyl-pyrazol-4-yl]phenyl]-1-methyl-imidazole-2-carboxamide; formate]
0.21	COCCn1cc(-c2ccc(-c3cnc(C(=O)Nc4ccc(C(=O)N5CCN(C(=O)[C@@H]6CC(CO)C[N+]6(C)C)CC5)c(Cl)c4)n3C)c(F)c2F)c(C)n1 (stereo partly drawn) [Example A12, N-[3-chloro-4-[4-[(2S)-4-(hydroxymethyl)-1,1-dimethyl-pyrrolidin-1-ium-2-carbonyl]piperazine-1-carbonyl]phenyl]-5-[2,3-difluoro-4-[1-(2-methoxyethyl)-3-methyl-pyrazol-4-yl]phenyl]-1-methyl-imidazole-2-carboxamide; formate]
0.11	COCCn1ncc(-c2ccc(-c3cnc(C(=O)Nc4ccc(C(=O)N5CCN(C(=O)C6(OC)CC[N+](C)(C)CC6)CC5)c(Cl)c4)n3C)c(F)c2F)c1C [Example A13, N-[3-chloro-4-[4-(4-methoxy-1,1-dimethyl-piperidin-1-ium-4-carbonyl)piperazine-1-carbonyl]phenyl]-5-[2,3-difluoro-4-[1-(2-methoxyethyl)-5-methyl-pyrazol-4-yl]phenyl]-1-methyl-imidazole-2-carboxamide; formate]

SMILES	IC90 [µM]
COCCn1cc(-c2ccc(-c3cnc(C(=O)Nc4ccc(C(=O)N5CCN(C(=O)C6CC[N+](C)(CC(N)=O)CC6)CC5)c(Cl)c4)n3C)c(F)c2F)c(C)n1 (centres unmarked) [Example B2, N-[4-[4-[1-(2-amino-2-oxo-ethyl)-1-methyl-piperidin-1-ium-4-carbonyl]piperazine-1-carbonyl]-3-chloro-phenyl]-5-[2,3-difluoro-4-[1-(2-methoxyethyl)-3-methyl-pyrazol-4-yl]phenyl]-1-methyl-imidazole-2-carboxamide; formate]	0.12

Same assay, conditions: Acinetobacter baumannii, ATCC17961, 16 h, read-out: ATCC 17961 IC90

SMILES	IC90 [µM]
COCCn1cc(-c2ccc(-c3cnc(C(=O)Nc4ccc(C(=O)N5CCN(C(=O)C6CC[N+](C)(C)CC6)CC5)c(Cl)c4)n3C)c(F)c2F)c(C)n1 [Example A1, N-[3-chloro-4-[4-(1,1-dimethylpiperidin-1-ium-4-carbonyl)piperazine-1-carbonyl]phenyl]-5-[2,3-difluoro-4-[l-(2-methoxyethyl)-3-methyl-pyrazol-4-yl]phenyl]-1-methyl-imidazole-2-carboxamide; formate]	0.12
COCCn1ncc(-c2ccc(-c3cnc(C(=O)Nc4ccc(C(=O)N5CCN(C(=O)C[N+](C)(C)C)CC5)c(Cl)c4)n3C)c(F)c2F)c1C [Example A8, [2-[4-[2-chloro-4-[[5-[2,3-difluoro-4-[1-(2-methoxyethyl)-5-methyl-pyrazol-4-yl]phenyl]-1-methyl-imidazole-2-carbonyl]amino]benzoyl]piperazin-1-yl]-2-oxo-ethyl]-trimethyl-ammonium; 2,2,2-trifluoroacetate]	0.053
COCCn1ncc(-c2ccc(-c3cnc(C(=O)Nc4ccc(C(=O)NCC5CCN(C(=O)C[N+](C)(C)C)CC5)c(Cl)c4)n3C)c(F)c2F)c1C [Example A9, [2-[4-[[[2-chloro-4-[[5-[2,3-difluoro-4-[1-(2-methoxyethyl)-5-methyl-pyrazol-4-yl]phenyl]-1-methyl-imidazole-2-carbonyl]amino]benzoyl]amino]methyl]-1-piperidyl]-2-oxo-ethyl]-trimethyl-ammonium; 2,2,2-trifluoroacetate]	0.16
COCCn1cc(-c2ccc(-c3cnc(C(=O)Nc4ccc(C(=O)N5CCN(C(=O)C6CC[N+](C)(CC(N)=O)CC6)CC5)c(Cl)c4)n3C)c(F)c2F)c(C)n1 (centres unmarked) [Example B1, N-[4-[4-[1-(2-amino-2-oxo-ethyl)-1-methyl-piperidin-1-ium-4-carbonyl]piperazine-1-carbonyl]-3-chloro-phenyl]-5-[2,3-difluoro-4-[1-(2-methoxyethyl)-3-methyl-pyrazol-4-yl]phenyl]-1-methyl-imidazole-2-carboxamide; formate]	0.19

Reference: patent US12421211B2, “Heterocyclic compounds” (Hoffmann-La Roche Inc., priority 2021, dated 2025)
